Results: US11607458B2 (Georgia State University Research Foundation, Inc, priority 2017, dated 2023)

Legend:
[1] = Release of the parent drug (Dox / dansyl amine) from prodrugs treated with alkynes, monitored by HPLC; assay type: physicochemical; details: r.t, PBS 10% DMSO
Description: (§1) Standard curve of Dox concentration measurement. To four HPLC vials containing 0.9 mL PBS (size: 1.5 mL) were added 25, 15, 20, 10 μL Dox stock solution (1 mM) respectively. Then defined amounts DMSO (975, 985, 980, and 990 μL) were added to each vial to afford final concentration of four vials were 25, 15, 20, 10 μM in PBS (10% DMSO), respectively. The samples were analyzed with HPLC method A. Dox retention time: 4.0 min.
as §1, with “for DA” for “of Dox”, “B. DA” for “A. Dox”, “5.8” for “4.0”
(§2) General procedures HPLC studies of reaction kinetics. To three 20-ml vials with 9 mL PBS were added a solution of tetrazine prodrug (500 μL, 500 μM). 350 μL, 300 μL and 250 μL DMSO were added to vial respectively, and then 150 μL, 200 μL and 250 μL of the alkyne solution (50 mM in DMSO) were added to the vials to afford final concentrations of alkyne 0.75 mM, 1 mM and 1.25 mM in PBS (10% DMSO, 25 μM prodrug) respectively. The reaction was stirred at r.t or 37° C. respectively. Every 30 min about 500 μL reaction mixtures were taken out and 20 μL of them were injected into the HPLC by the autosampler; the rest of them were poured back to the reaction mixture. (Note: In the cases of prodrugs 1d or 1b reacting with alkyne 2d at 37° C., the final concentrations of 2d in the kinetic studies were 250 μM, 300 μM and 350 μM).
Results. The results from the reaction kinetics studies of the tetrazine-cyclooctyne system are summarized below in Table 4. Prodrugs 1d or 1b (25 μM) were treated with alkynes 2d, 2c ,2a, or 2b at different concentrations at room temperature (r.t.) or 37° C., respectively. The prodrug consumption and release of the parent drug were monitored by HPLC (Table 4).

[2] = HPLC studies of reaction kinetics of tetrazine prodrugs with cyclooctyne alkynes (Kobs, second-order rate constant k2); assay type: physicochemical; details: for Kobs: prodrug 25 μM; for k2 at 37° C. (second order rate constant) / k2 at r.t (second order rate constant): PBS containing 10% DMSO, n = 3
Description: Stock solution preparation. Each of the tetrazine prodrugs (compounds 1b, 1c, and 1d) was dissolved in DMSO to afford a 500-μM stock solution. Each of the alkynes (compounds 2a, 2b, 2c, and 2d) was dissolved in DMSO to afford a 50-mM stock solution. Doxorubicin (Dox) and dansylamino compound (DA) 1.1b were each dissolved in DMSO to afford 1-mM stock solutions.
(§3) HPLC method A.: mobile phase A (10 mM NaH2PO4 in water, pH=5.0) and mobile phase B (ACN), flow rate: 1 mL/min, running time: 30 min, the gradient elution method: 25% B from 0 to 6 min, 25% to 50% B from 6 to 8 min, 50% B from 8 to 15 min, 50% to 99% B from 15 to 20 min, 99% B from 20 to 25 min, 99% to 25% B from 25 to 30 min. Detection wavelength: 256 nm. Column: Waters C18 3.5 μM, 4.6×100 mm. Injection volume: 20 μL.
as §3, with “method B:” for “method A.:”, “method: 30%” for “method: 25%”, “min, 30%” for “min, 25%”, “25 min.” for “25 min,”, “to 30%” for “to 25%”, “Detection wavelength 1: 256, detection wavelength 2: 337” for “Detection wavelength: 256”
as §2
Determination of second-order rate constants. The reaction rate constant, kobs, was calculated for each concentration of the alkyne by fitting the prodrug areas versus time using eq. 1: Y=A exp(−kobst) eq. 1 where Y is the prodrug area, and t is time. The pseudo-first-order rate constant, kobs, was then plotted against the concentration of alkyne to yield the second-order rate constant using eq 2: kobs=k2[Alkyne] eq. 2 where k2 is the second-order rate constant.

SMILES: C#CCOc1ccc(-c2nnc(C(=O)NC3CC(OC4CC(O)(C(=O)CO)Cc5c(O)c6c(c(O)c54)C(=O)c4c(OC)cccc4C6=O)OC(C)C3O)nn2)cc1 (stereo not drawn) [1b]
- Time of the Dox peak (in brackets in the Dox Peak % cell) ([1]; alkyne 2a): 19 h
- Time of the Dox peak (in brackets in the Dox Peak % cell) ([1]; alkyne 2b): 18 h
- Time of the Dox peak (in brackets in the Dox Peak % cell) ([1]; alkyne 2c): 21 h
- Time of the Dox peak (in brackets in the Dox Peak % cell) ([1]; alkyne 2d): 48 h
- Kobs ([2]; 37° C., alkyne 2a 0.75 mM, Expt. 1): 0.418 h⁻¹
- Kobs ([2]; 37° C., alkyne 2a 0.75 mM, Expt. 2): 0.438 h⁻¹
- Kobs ([2]; 37° C., alkyne 2a 0.75 mM, Expt. 3): 0.495 h⁻¹
- Kobs ([2]; 37° C., alkyne 2a 1.00 mM, Expt. 1): 0.546 h⁻¹
- Kobs ([2]; 37° C., alkyne 2a 1.00 mM, Expt. 2): 0.598 h⁻¹
- Kobs ([2]; 37° C., alkyne 2a 1.00 mM, Expt. 3): 0.678 h⁻¹
- Kobs ([2]; 37° C., alkyne 2a 1.25 mM, Expt. 1): 0.673 h⁻¹
- Kobs ([2]; 37° C., alkyne 2a 1.25 mM, Expt. 2): 0.739 h⁻¹
- Kobs ([2]; 37° C., alkyne 2a 1.25 mM, Expt. 3): 0.857 h⁻¹
- Kobs ([2]; 37° C., alkyne 2b 0.75 mM, Expt. 1): 0.486 h⁻¹
- Kobs ([2]; 37° C., alkyne 2b 0.75 mM, Expt. 2): 0.503 h⁻¹
- Kobs ([2]; 37° C., alkyne 2b 0.75 mM, Expt. 3): 0.533 h⁻¹
- Kobs ([2]; 37° C., alkyne 2b 1.00 mM, Expt. 1): 0.635 h⁻¹
- Kobs ([2]; 37° C., alkyne 2b 1.00 mM, Expt. 2): 0.672 h⁻¹
- Kobs ([2]; 37° C., alkyne 2b 1.00 mM, Expt. 3): 0.622 h⁻¹
- Kobs ([2]; 37° C., alkyne 2b 1.25 mM, Expt. 1): 0.783 h⁻¹
- Kobs ([2]; 37° C., alkyne 2b 1.25 mM, Expt. 2): 0.846 h⁻¹
- Kobs ([2]; 37° C., alkyne 2b 1.25 mM, Expt. 3): 0.905 h⁻¹
- Kobs ([2]; 37° C., alkyne 2c 0.75 mM, Expt. 1): 0.0607 h⁻¹
- Kobs ([2]; 37° C., alkyne 2c 0.75 mM, Expt. 2): 0.0671 h⁻¹
- Kobs ([2]; 37° C., alkyne 2c 0.75 mM, Expt. 3): 0.0696 h⁻¹
- Kobs ([2]; 37° C., alkyne 2c 1.00 mM, Expt. 1): 0.0798 h⁻¹
- Kobs ([2]; 37° C., alkyne 2c 1.00 mM, Expt. 2): 0.0895 h⁻¹
- Kobs ([2]; 37° C., alkyne 2c 1.00 mM, Expt. 3): 0.0941 h⁻¹
- Kobs ([2]; 37° C., alkyne 2c 1.25 mM, Expt. 1): 0.0986 h⁻¹
- Kobs ([2]; 37° C., alkyne 2c 1.25 mM, Expt. 2): 0.112 h⁻¹
- Kobs ([2]; 37° C., alkyne 2c 1.25 mM, Expt. 3): 0.119 h⁻¹
- Kobs ([2]; 37° C., alkyne 2d 0.25 mM, Expt. 1): 1.90 h⁻¹
- Kobs ([2]; 37° C., alkyne 2d 0.25 mM, Expt. 2): 1.81 h⁻¹
- Kobs ([2]; 37° C., alkyne 2d 0.25 mM, Expt. 3): 1.97 h⁻¹
- Kobs ([2]; 37° C., alkyne 2d 0.3 mM, Expt. 1): 2.28 h⁻¹
- Kobs ([2]; 37° C., alkyne 2d 0.3 mM, Expt. 2): 2.15 h⁻¹
- Kobs ([2]; 37° C., alkyne 2d 0.3 mM, Expt. 3): 2.38 h⁻¹
- Kobs ([2]; 37° C., alkyne 2d 0.35 mM, Expt. 1): 2.65 h⁻¹
- Kobs ([2]; 37° C., alkyne 2d 0.35 mM, Expt. 2): 2.48 h⁻¹
- Kobs ([2]; 37° C., alkyne 2d 0.35 mM, Expt. 3): 2.78 h⁻¹
- k2 at 37° C. (second order rate constant) ([2]; alkyne 2a, 37° C.): 0.17 M⁻¹ s⁻¹
- k2 at 37° C. (second order rate constant) ([2]; alkyne 2a, 37° C., listed as lb): 0.17 ± 0.05 M⁻¹ s⁻¹
- k2 at r.t (second order rate constant) ([2]; alkyne 2a, r.t): 0.061 ± 0.013 M⁻¹ s⁻¹
- k2 at 37° C. (second order rate constant) ([2]; alkyne 2b, 37° C.): 0.19 M⁻¹ s⁻¹
- k2 at 37° C. (second order rate constant) ([2]; alkyne 2b, 37° C., listed as lb): 0.19 ± 0.04 M⁻¹ s⁻¹
- k2 at r.t (second order rate constant) ([2]; alkyne 2b, r.t): 0.065 ± 0.013 M⁻¹ s⁻¹
- k2 at 37° C. (second order rate constant) ([2]; alkyne 2c, 37° C.): 0.025 ± 0.006 M⁻¹ s⁻¹
- k2 at r.t (second order rate constant) ([2]; alkyne 2c, r.t): 0.0078 ± 0.0009 M⁻¹ s⁻¹
- k2 at 37° C. (second order rate constant) ([2]; alkyne 2d, 37° C.): 2.1 M⁻¹ s⁻¹
- k2 at 37° C. (second order rate constant) ([2]; alkyne 2d, 37° C., listed as lb): 2.1 ± 0.4 M⁻¹ s⁻¹
- k2 at r.t (second order rate constant) ([2]; alkyne 2d, r.t): 0.36 ± 0.07 M⁻¹ s⁻¹
- Kobs ([2]; r.t, alkyne 2a 0.75 mM, Expt. 1): 0.183 h⁻¹
- Kobs ([2]; r.t, alkyne 2a 0.75 mM, Expt. 2): 0.191 h⁻¹
- Kobs ([2]; r.t, alkyne 2a 0.75 mM, Expt. 3): 0.185 h⁻¹
- Kobs ([2]; r.t, alkyne 2a 1.00 mM, Expt. 1): 0.235 h⁻¹
- Kobs ([2]; r.t, alkyne 2a 1.00 mM, Expt. 2): 0.246 h⁻¹
- Kobs ([2]; r.t, alkyne 2a 1.00 mM, Expt. 3): 0.247 h⁻¹
- Kobs ([2]; r.t, alkyne 2a 1.25 mM, Expt. 1): 0.289 h⁻¹
- Kobs ([2]; r.t, alkyne 2a 1.25 mM, Expt. 2): 0.295 h⁻¹
- Kobs ([2]; r.t, alkyne 2a 1.25 mM, Expt. 3): 0.307 h⁻¹
- Kobs ([2]; r.t, alkyne 2b 0.75 mM, Expt. 1): 0.201 h⁻¹
- Kobs ([2]; r.t, alkyne 2b 0.75 mM, Expt. 2): 0.195 h⁻¹
- Kobs ([2]; r.t, alkyne 2b 0.75 mM, Expt. 3): 0.197 h⁻¹
- Kobs ([2]; r.t, alkyne 2b 1.00 mM, Expt. 1): 0.261 h⁻¹
- Kobs ([2]; r.t, alkyne 2b 1.00 mM, Expt. 2): 0.257 h⁻¹
- Kobs ([2]; r.t, alkyne 2b 1.00 mM, Expt. 3): 0.261 h⁻¹
- Kobs ([2]; r.t, alkyne 2b 1.25 mM, Expt. 1): 0.309 h⁻¹
- Kobs ([2]; r.t, alkyne 2b 1.25 mM, Expt. 2): 0.318 h⁻¹
- Kobs ([2]; r.t, alkyne 2b 1.25 mM, Expt. 3): 0.326 h⁻¹
- Kobs ([2]; r.t, alkyne 2c 0.75 mM, Expt. 1): 0.0202 h⁻¹
- Kobs ([2]; r.t, alkyne 2c 0.75 mM, Expt. 2): 0.0209 h⁻¹
- Kobs ([2]; r.t, alkyne 2c 0.75 mM, Expt. 3): 0.0207 h⁻¹
- Kobs ([2]; r.t, alkyne 2c 1.00 mM, Expt. 1): 0.0282 h⁻¹
- Kobs ([2]; r.t, alkyne 2c 1.00 mM, Expt. 2): 0.0262 h⁻¹
- Kobs ([2]; r.t, alkyne 2c 1.00 mM, Expt. 3): 0.0278 h⁻¹
- Kobs ([2]; r.t, alkyne 2c 1.25 mM, Expt. 1): 0.0353 h⁻¹
- Kobs ([2]; r.t, alkyne 2c 1.25 mM, Expt. 2): 0.0341 h⁻¹
- Kobs ([2]; r.t, alkyne 2c 1.25 mM, Expt. 3): 0.0344 h⁻¹
- Kobs ([2]; r.t, alkyne 2d 0.75 mM, Expt. 1): 0.894 h⁻¹
- Kobs ([2]; r.t, alkyne 2d 0.75 mM, Expt. 2): 0.976 h⁻¹
- Kobs ([2]; r.t, alkyne 2d 0.75 mM, Expt. 3): 0.993 h⁻¹
- Kobs ([2]; r.t, alkyne 2d 1.00 mM, Expt. 1): 1.18 h⁻¹
- Kobs ([2]; r.t, alkyne 2d 1.00 mM, Expt. 2): 1.30 h⁻¹
- Kobs ([2]; r.t, alkyne 2d 1.00 mM, Expt. 3): 1.34 h⁻¹
- Kobs ([2]; r.t, alkyne 2d 1.25 mM, Expt. 1): 1.47 h⁻¹
- Kobs ([2]; r.t, alkyne 2d 1.25 mM, Expt. 2): 1.62 h⁻¹
- Kobs ([2]; r.t, alkyne 2d 1.25 mM, Expt. 3): 1.69 h⁻¹
